Where two headings read alike, the source gives them in different places.
Tests used:
MDA-MB-231 = experiment: Antiproliferative assay (resazurin, 72 h); format: cell-based, human; conditions: for IC50: Homo sapiens, MDA-MB-231
Description: (§1) Colon adenocarcinoma (HT-29) and T-cell leukemia (Jurkat) cells were grown in RPMI-1640 medium (Gibco, Milano, Italy). Promyelocytic leukemia cells (HL-60), non-small cell lung carcinoma (A549), cervix carcinoma (HeLa) and breast adenocarcinoma (MDA-MB-231) cells were grown in DMEM medium (Gibco, Milano, Italy). Both media were supplemented with 115 units/mL of penicillin G (Gibco, Milano, Italy), 115 μg/mL of streptomycin (Invitrogen, Milano, Italy) and 10% fetal bovine serum (Invitrogen, Milano, Italy). All the cell lines used were purchased from the American Type Culture Collection (ATCC, Manassas, VA, USA). Stock solutions (10 mM) of the compounds were obtained by dissolving them in DMSO.
(§2) The cells were seeded in 96-well plates at the appropriate density for each cell line. After 24 h, the cells were treated by performing serial 5-fold dilutions of the tested compounds starting from a concentration of 10 μM. All experimental conditions were tested in triplicate for statistical analysis. The plates were incubated for 72 h at 37 °C in a humidified 5% CO2 atmosphere. At the end of the incubation period, 10 μL of 100 μg/mL resazurin solution was added to each well; then, the plate was re-incubated for 3–4 h. The fluorescence of the wells in each plate was monitored using a Spark 10 M spectrophotometer (Tecan Group Ltd., Mannedorf, Switzerland) with a 535 nm excitation wavelength and a 600 nm emission wavelength.

A549 = experiment: Antiproliferative assay (resazurin, 72 h); format: cell-based, human; conditions: Homo sapiens
Description: as §1, §2

Jurkat = experiment: Antiproliferative assay (resazurin, 72 h); format: cell-based, human; conditions: Homo sapiens, Jurkat, mean ± SE, 72 h
Description: as §1, §2

HT-29 = experiment: Antiproliferative assay (resazurin, 72 h); format: cell-based, human; conditions: Homo sapiens, HT-29, mean ± SE, 72 h
Description: as §1, §2

HeLa = experiment: Antiproliferative assay (resazurin, 72 h); format: cell-based, human; conditions: Homo sapiens, HeLa
Description: as §1, §2

[1] = tested on: A549, MDA-MB-231, HeLa, HT-29 and Jurkat cancer cell lines; experiment: Antiproliferative activity over the panel of cancer cell lines; format: cell-based, human; conditions: for IC50: Homo sapiens
Description: as §1, §2

[2] = read-out: IC50 values (2-para-substituted phenyl derivatives)
[3] = four of the five cell lines, read-out: IC50 values against four of the five cell lines

| SMILES | IC50 (MDA-MB-231; Table 1, mean ± SE, 72 h) | IC50 (A549; A549, Table 1, mean ± SE) | IC50 (Jurkat; Table 1) | IC50 (HT-29; Table 1) | IC50 (HeLa; Table 1, mean ± SE) | melting point | IC50 (MDA-MB-231; Table 2, mean ± SE, 72 h) | IC50 (A549; A549, Table 2, mean ± SE) | IC50 (Jurkat; Table 2) | IC50 (HT-29; Table 2) | IC50 (HeLa; Table 2, mean ± SE) | also measured |
| --- | --- | --- | --- | --- | --- | --- | --- | --- | --- | --- | --- | --- |
| COc1cc(Nc2cc(C)nc3nc(-c4ccc(F)cc4)nn23)cc(OC)c1OC [Compound 7a, 2-(4-Fluorophenyl)-5-methyl-N-(3,4,5-trimethoxyphenyl)-[1,2,4]triazolo [1,5-a]pyrimidin-7-amine] | 2250 ± 190 nM | 2710 ± 250 nM | 3570 ± 450 nM | > 10000 nM | 3760 ± 190 nM | 253 °C | – | – | – | – | – | IC50 [1, 2]: < 2000 nM |
| COc1cc(Nc2cc(C)nc3nc(-c4ccc(Cl)cc4)nn23)cc(OC)c1OC [Compound 7b, 2-(4-Chlorophenyl)-5-methyl-N-(3,4,5-trimethoxyphenyl)-[1,2,4]triazolo [1,5-a]pyrimidin-7-amine] | > 10000 nM | > 10000 nM | > 10000 nM | > 10000 nM | 5790 ± 420 nM | 260 °C | – | – | – | – | – | IC50 [1, 2]: < 2000 nM |
| COc1cc(Nc2cc(C)nc3nc(-c4ccc(C)cc4)nn23)cc(OC)c1OC [Compound 7c, 5-Methyl-2-(p-tolyl)-N-(3,4,5-trimethoxyphenyl)-[1,2,4]triazolo [1,5-a]pyrimidin-7-amine] | 2600 ± 270 nM | > 10000 nM | 4230 ± 1150 nM | > 10000 nM | 2080 ± 190 nM | 248 °C | – | – | – | – | – | IC50 [1, 2]: < 2000 nM |
| COc1cc(Nc2cc(C)nc3nc(Nc4ccc(Cl)cc4)nn23)cc(OC)c1OC [Compound 7f, N2-(4-Chlorophenyl)-5-methyl-N7-(3,4,5-trimethoxyphenyl)-[1,2,4]triazolo [1,5-a]pyrimidine-2,7-diamine] | 470 ± 45 nM | 290 ± 30 nM | > 10000 nM | 320 ± 40 nM | 92 ± 10 nM | 251 °C | – | – | – | – | – | IC50 [1, 3]: < 1000 nM |
| COc1cc(Nc2cc(C)nc3nc(NCc4ccc(F)cc4)nn23)cc(OC)c1OC [Compound 7l, N^2-(4-Fluorobenzyl)-5-methyl-N^7-(3,4,5-trimethoxyphenyl)-[1,2,4]triazolo [1,5-a]pyrimidine-2,7-diamine] | 61 ± 9 nM | 5890 ± 480 nM | 4680 ± 480 nM | 1140 ± 90 nM | 1860 ± 130 nM | 156 to 158 °C | – | – | – | – | – | fold more potent than 7e (MDA-MB-231; MDA-MB-231 cells): 12 fold; fold less active than 7e ([1]; in four lines): 2-6 fold |
| COc1cc(Nc2cc(C)nc3nc(NCc4cccc(Cl)c4)nn23)cc(OC)c1OC [Compound 7o, N^2-(3-Chlorobenzyl)-5-methyl-N^7-(3,4,5-trimethoxyphenyl)-[1,2,4]triazolo [1,5-a]pyrimidine-2,7-diamine] | 60 ± 7 nM | 930 ± 110 nM | 4720 ± 360 nM | 790 ± 90 nM | 740 ± 80 nM | 136 to 138 °C | – | – | – | – | – | fold increase in potency vs 7n (MDA-MB-231; MDA-MB-231 cells): 3 fold; IC50 [1, 3]: < 1000 nM; fold reduction in activity vs 7n ([1]; four of the five cancer cell lines): 9-24 fold |
| COc1ccc(CNc2nc3nc(C)cc(Nc4cc(OC)c(OC)c(OC)c4)n3n2)cc1 [Compound 7s, N^2-(4-Methoxybenzyl)-5-methyl-N^7-(3,4,5-trimethoxyphenyl)-[1,2,4]triazolo [1,5-a]pyrimidine-2,7-diamine] | 1270 ± 120 nM | 810 ± 80 nM | 900 ± 90 nM | 490 ± 60 nM | 220 ± 30 nM | 182 to 184 °C | – | – | – | – | – | IC50 (MDA-MB-231): 1300 nM; IC50 ([1]; MDA-MB-231, against four of the five cell lines (not MDA-MB-231), read-out: IC50 values, range): 217 to 900 nM; IC50 [1, 3]: < 1000 nM; fold reduction in antiproliferative activity vs 7p ([1]; all five lines): 2–5 fold |
| COc1cc(Nc2cc(C)nc3nc(NCc4ccc(C(F)(F)F)cc4)nn23)cc(OC)c1OC [Compound 7w, 5-Methyl-N^2-(4-(trifluoromethyl)benzyl)-N^7-(3,4,5-trimethoxyphenyl)-[1,2,4]triazolo [1,5-a]pyrimidine-2,7-diamine] | 560 ± 30 nM | 1280 ± 130 nM | 960 ± 60 nM | 590 ± 260 nM | 520 ± 20 nM | 174 to 176 °C | – | – | – | – | – | IC50 [1, 3]: < 1000 nM |
| C#Cc1cccc(Nc2cc(C)nc3nc(NCc4ccc(Cl)cc4)nn23)c1 [Compound 8c, N^7-(3-Ethynylphenyl)-N^2-(4-chlorobenzyl)-5-methyl-[1,2,4]triazolo [1,5-a]pyrimidine-2,7-diamine] | – | – | – | – | – | 190 to 192 °C | 1710 ± 60 nM | 610 ± 200 nM | 500 ± 60 nM | 490 ± 60 nM | 420 ± 50 nM | – |
| Cc1ccc(CNc2nc3nc(C)cc(Nc4ccc(F)c(Cl)c4)n3n2)cc1 [Compound 8d, N^7-(3-Chloro-4-fluorophenyl)-N^2-(4-methylbenzyl)-5-methyl-[1,2,4]triazolo [1,5-a]pyrimidine-2,7-diamine] | – | – | – | – | – | 178 to 180 °C | 800 ± 260 nM | 300 ± 60 nM | 290 ± 60 nM | 220 ± 40 nM | 190 ± 60 nM | fold reduction in activity vs 7p ([1]; all cell lines): 1.5–3 fold |
| Cc1ccc(CNc2nc3nc(C)cc(Nc4cccc(Cl)c4)n3n2)cc1 [Compound 8e, N^7-(3-Chlorophenyl)-N^2-(4-methylbenzyl)-5-methyl-[1,2,4]triazolo [1,5-a]pyrimidine-2,7-diamine] | – | – | – | – | – | 166 to 168 °C | 2760 ± 550 nM | 1640 ± 370 nM | 630 ± 140 nM | 830 ± 3 nM | 680 ± 260 nM | – |
| Cc1cc(Nc2cccc(F)c2)n2nc(NCc3ccc4c(c3)OCO4)nc2n1 [Compound 8h, N^2-(Benzo[d][1,3]dioxol-5-ylmethyl)-N^7-(3-fluorophenyl)-5-methyl-[1,2,4]triazolo [1,5-a]pyrimidine-2,7-diamine] | – | – | – | – | – | 174 to 176 °C | 9250 ± 120 nM | 2440 ± 130 nM | 5980 ± 1580 nM | 9110 ± 930 nM | 5880 ± 2960 nM | – |
| Cc1cc(Nc2cccc(Cl)c2)n2nc(NCc3ccc4c(c3)OCO4)nc2n1 [Compound 8j, N^2-(Benzo[d][1,3]dioxol-5-ylmethyl)-N^7-(3-chlorophenyl)-5-methyl-[1,2,4]triazolo [1,5-a]pyrimidine-2,7-diamine] | – | – | – | – | – | 164 to 166 °C | 4820 ± 1910 nM | 2170 ± 10 nM | 1660 ± 480 nM | 2660 ± 660 nM | 960 ± 460 nM | – |
| Cc1cc(Nc2ccc(Cl)c(Cl)c2)n2nc(NCc3ccc4c(c3)OCO4)nc2n1 [Compound 8k, N^2-(Benzo[d][1,3]dioxol-5-ylmethyl)-N^7-(3,4-dichlorophenyl)-5-methyl-[1,2,4]triazolo [1,5-a]pyrimidine-2,7-diamine] | – | – | – | – | – | 166 to 168 °C | 2040 ± 1030 nM | 2360 ± 340 nM | 950 ± 120 nM | 1380 ± 60 nM | 720 ± 340 nM | – |
| Cc1cc(Nc2cccc(Br)c2)n2nc(NCc3ccc4c(c3)OCO4)nc2n1 [Compound 8m, N^2-(Benzo[d][1,3]dioxol-5-ylmethyl)-N^7-(3-bromophenyl)-5-methyl-[1,2,4]triazolo [1,5-a]pyrimidine-2,7-diamine] | – | – | – | – | – | 150 to 152 °C | 3990 ± 60 nM | 2320 ± 230 nM | 1180 ± 110 nM | 2240 ± 120 nM | 1280 ± 300 nM | – |
| Cc1cc(Nc2ccc(C(F)(F)F)cc2)n2nc(NCc3ccc4c(c3)OCO4)nc2n1 [Compound 8n, N^2-(Benzo[d][1,3]dioxol-5-ylmethyl)-N^7-(4-trifluoromethylphenyl)-5-methyl-[1,2,4]triazolo [1,5-a]pyrimidine-2,7-diamine] | – | – | – | – | – | 158 to 160 °C | 6130 ± 1460 nM | 3270 ± 570 nM | 1600 ± 290 nM | 5180 ± 270 nM | 3640 ± 1010 nM | – |
| Cc1cc(Nc2cccc(C(F)(F)F)c2)n2nc(NCc3ccc4c(c3)OCO4)nc2n1 [Compound 8o, N^2-(Benzo[d][1,3]dioxol-5-ylmethyl)-N^7-(3-trifluoromethylphenyl)-5-methyl-[1,2,4]triazolo [1,5-a]pyrimidine-2,7-diamine] | – | – | – | – | – | 180 to 182 °C | 9820 ± 860 nM | 6260 ± 2020 nM | 7600 ± 60 nM | 7130 ± 870 nM | 7150 ± 600 nM | – |
| C#Cc1cccc(Nc2cc(C)nc3nc(NCc4ccc5c(c4)OCO5)nn23)c1 [Compound 8p, N^2-(Benzo[d][1,3]dioxol-5-ylmethyl)-N^7-(3-ethynylphenyl)-5-methyl-[1,2,4]triazolo [1,5-a]pyrimidine-2,7-diamine] | – | – | – | – | – | 165 to 168 °C | 3090 ± 570 nM | 1780 ± 510 nM | 2380 ± 180 nM | 2080 ± 140 nM | 1600 ± 70 nM | – |

From paper PMC9230136 (Pharmaceutics, 2022)
